# According to patent EP0908457B1, “3-(1,2-benzisothiazol- and isoxazol-5-Y1)-2,4(1H,3H)-pyrimidinedione or thione and 3-(1,2-benzisothiazol- and isoxazol-5-y1)-4(3H)-pyrimidinone or thione herbicidal agents” (BASF AKTIENGESELLSCHAFT, priority 1997, dated 1999):
# Columns and labels:
# [1] = system: Echinochloa oryzoides (Ard.) Fritsch.; experiment: Preemergence weed control under flooded paddy conditions, ECHORC (Watergrass (Calif.)); format: in vivo; conditions: preemergence, flooded paddy, rated three to four weeks after treatment; for herbicidal effect rating, ECHORC: meaning of each grade not given here
# [2] = system: Oryza sativa, (L.) Tebonnet; experiment: Rice tolerance to post-transplant applications under flooded paddy conditions (Example 187), ORYSAT (Rice, Tebonnet); conditions: rated three to four weeks after treatment
# [3] = system: Cyperus serotinus, Rottb.; experiment: Preemergence weed control under flooded paddy conditions, CYPSE (Flatsedge); format: in vivo; conditions: preemergence, rated three to four weeks after treatment; for herbicidal effect rating, CYPSE: meaning of each grade not given here
# Cyperus iria = experiment: Preemergence weed control under flooded paddy conditions, CYPIR (Rice Flatsedge); format: in vivo; conditions: preemergence, flooded paddy, rated three to four weeks after treatment; for herbicidal effect rating, CYPIR: meaning of each grade not given here
# Sagittaria pygmaea, L. = experiment: Preemergence weed control under flooded paddy conditions, SAGPY (Arrowhead (Pygmaea)); format: in vivo; conditions: preemergence, flooded paddy, rated three to four weeks after treatment; for herbicidal effect rating, SAGPY: meaning of each grade not given here
# [4] = system: Monochoria vaginalis, Presl.; experiment: Preemergence weed control under flooded paddy conditions, MOOVA (Monochoria); format: in vivo; conditions: preemergence, flooded paddy, rated three to four weeks after treatment; for herbicidal effect rating, MOOVA: meaning of each grade not given here
compound,measurement,setting,value
"Cn1c(C(F)(F)F)cc(=O)n(-c2ccc3snc(C(=O)NO)c3c2)c1=O [Example 471, 1,2-Benzisothiazole-3-carbohydroxamic acid, 5-[3,6-dihydro-3-methyl-2,6-dioxo-4-(trifluoromethyl)-1(2H)-pyrimidinyl]-]",ECHORC herbicidal rating,[1]; 0.0320 kg/ha,0.0
same,ECHORC herbicidal rating,[1]; 0.0620 kg/ha,3.0
same,ECHORC herbicidal rating,[1]; 0.1250 kg/ha,6.0
same,ECHORC herbicidal rating,[1]; 0.2500 kg/ha,9.0
same,ORYSAT herbicidal rating (rice tolerance),[2]; 0.0320 kg/ha,2.0
same,ORYSAT herbicidal rating (rice tolerance),[2]; 0.0620 kg/ha,3.0
same,ORYSAT herbicidal rating (rice tolerance),[2]; 0.1250 kg/ha,5.0
same,ORYSAT herbicidal rating (rice tolerance),[2]; 0.2500 kg/ha,5.0
same,CYPSE herbicidal rating,[3]; 0.0320 kg/ha,3.0
same,CYPSE herbicidal rating,[3]; 0.2500 kg/ha,7.0
same,CYPIR herbicidal rating,Cyperus iria; 0.0320 kg/ha,6.0
same,CYPIR herbicidal rating,Cyperus iria; 0.0620 kg/ha,6.0
same,CYPIR herbicidal rating,Cyperus iria; 0.1250 kg/ha,9.0
same,CYPIR herbicidal rating,Cyperus iria; 0.2500 kg/ha,9.0
same,SAGPY herbicidal rating,"Sagittaria pygmaea, L.; 0.0320 kg/ha",0.0
same,SAGPY herbicidal rating,"Sagittaria pygmaea, L.; 0.0620 kg/ha",3.0
same,SAGPY herbicidal rating,"Sagittaria pygmaea, L.; 0.1250 kg/ha",5.0
same,SAGPY herbicidal rating,"Sagittaria pygmaea, L.; 0.2500 kg/ha",7.0
same,MOOVA herbicidal rating,[4]; 0.0320 kg/ha,6.0
same,MOOVA herbicidal rating,[4]; 0.0620 kg/ha,7.0
same,MOOVA herbicidal rating,[4]; 0.1250 kg/ha,9.0
same,MOOVA herbicidal rating,[4]; 0.2500 kg/ha,9.0
"Cc1ccc(OC(C)C(=O)NS(C)(=O)=O)c(-c2nsc3ccc(-n4c(=O)cc(C(F)(F)F)n(C)c4=O)cc23)c1 (stereo not shown) [Example 572, Propionamide, 2-{{2-{5-[3,6-dihydro-3-methyl-2,6-dioxo-4-(trifluoromethyl)-1(2H)-pyrimidinyl)-1,2-benzisothiazol-3-yl}-p-tolyl}oxy}-N-(methylsulfonyl)-]","herbicidal effect rating, ECHORC",[1]; Rate 0.0320 kg/ha,0.0
same,"herbicidal effect rating, ECHORC",[1]; Rate 0.0620 kg/ha,0.0
same,"herbicidal effect rating, ECHORC",[1]; Rate 0.1250 kg/ha,2.0
same,"herbicidal effect rating, ECHORC",[1]; Rate 0.2500 kg/ha,6.0
same,herbicidal effect rating ORYSAT,[2]; Rate 0.0320 kg/ha,0.0
same,herbicidal effect rating ORYSAT,[2]; Rate 0.0620 kg/ha,1.0
same,herbicidal effect rating ORYSAT,[2]; Rate 0.1250 kg/ha,3.0
same,herbicidal effect rating ORYSAT,[2]; Rate 0.2500 kg/ha,6.0
same,"herbicidal effect rating, CYPSE",[3]; Rate 0.0320 kg/ha,0.0
same,"herbicidal effect rating, CYPSE",[3]; Rate 0.0620 kg/ha,0.0
same,"herbicidal effect rating, CYPSE",[3]; Rate 0.1250 kg/ha,0.0
same,"herbicidal effect rating, CYPSE",[3]; Rate 0.2500 kg/ha,2.0
same,"herbicidal effect rating, CYPIR",Cyperus iria; Rate 0.0320 kg/ha,0.0
same,"herbicidal effect rating, CYPIR",Cyperus iria; Rate 0.0620 kg/ha,0.0
same,"herbicidal effect rating, CYPIR",Cyperus iria; Rate 0.1250 kg/ha,2.0
same,"herbicidal effect rating, CYPIR",Cyperus iria; Rate 0.2500 kg/ha,5.0
same,"herbicidal effect rating, SAGPY","Sagittaria pygmaea, L.; Rate 0.0320 kg/ha",0.0
same,"herbicidal effect rating, SAGPY","Sagittaria pygmaea, L.; Rate 0.0620 kg/ha",0.0
same,"herbicidal effect rating, SAGPY","Sagittaria pygmaea, L.; Rate 0.1250 kg/ha",0.0
same,"herbicidal effect rating, SAGPY","Sagittaria pygmaea, L.; Rate 0.2500 kg/ha",3.0
same,"herbicidal effect rating, MOOVA",[4]; Rate 0.0320 kg/ha,0.0
same,"herbicidal effect rating, MOOVA",[4]; Rate 0.0620 kg/ha,6.0
same,"herbicidal effect rating, MOOVA",[4]; Rate 0.1250 kg/ha,6.0
same,"herbicidal effect rating, MOOVA",[4]; Rate 0.2500 kg/ha,9.0
"C#CCOC(=O)COc1c(-c2nsc3ccc(-n4c(=O)cc(C(F)(F)F)n(C)c4=O)cc23)ccc(C)c1C [Example 280, Acetic acid, {{6-[5-[3,6-dihydro-3-methyl-2,6-dioxo-4-(trifluoromethyl)-1(2H)-pyrimidinyl]-1,2-benzisothiazol-3-yl}-2,3-xylyl}oxy}-, 2-propynyl ester]",ECHORC herbicidal effect rating,[1]; Rate 0.0320 kg/ha,0.0
same,ECHORC herbicidal effect rating,[1]; Rate 0.0620 kg/ha,5.7
same,ECHORC herbicidal effect rating,[1]; Rate 0.1250 kg/ha,7.6
same,ECHORC herbicidal effect rating,[1]; Rate 0.2500 kg/ha,9.0
same,ECHORC herbicidal effect rating,[1]; Rate 0.5000 kg/ha,9.0
same,ORYSAT herbicidal effect rating,[2]; Rate 0.0320 kg/ha,3.0
same,ORYSAT herbicidal effect rating,[2]; Rate 0.0620 kg/ha,3.0
same,ORYSAT herbicidal effect rating,[2]; Rate 0.1250 kg/ha,7.0
same,ORYSAT herbicidal effect rating,[2]; Rate 0.2500 kg/ha,8.0
same,ORYSAT herbicidal effect rating,[2]; Rate 0.5000 kg/ha,9.0
same,CYPSE herbicidal effect rating,[3]; Rate 0.0320 kg/ha,0.0
same,CYPSE herbicidal effect rating,[3]; Rate 0.0620 kg/ha,0.0
same,CYPSE herbicidal effect rating,[3]; Rate 0.1250 kg/ha,0.0
same,CYPSE herbicidal effect rating,[3]; Rate 0.2500 kg/ha,2.0
same,CYPSE herbicidal effect rating,[3]; Rate 0.5000 kg/ha,3.0
same,CYPIR herbicidal effect rating,Cyperus iria; Rate 0.0320 kg/ha,2.0
same,CYPIR herbicidal effect rating,Cyperus iria; Rate 0.0620 kg/ha,6.0
same,CYPIR herbicidal effect rating,Cyperus iria; Rate 0.1250 kg/ha,8.0
same,CYPIR herbicidal effect rating,Cyperus iria; Rate 0.2500 kg/ha,9.0
same,CYPIR herbicidal effect rating,Cyperus iria; Rate 0.5000 kg/ha,9.0
same,SAGPY herbicidal effect rating,"Sagittaria pygmaea, L.; Rate 0.0320 kg/ha",0.0
same,SAGPY herbicidal effect rating,"Sagittaria pygmaea, L.; Rate 0.0620 kg/ha",0.0
same,SAGPY herbicidal effect rating,"Sagittaria pygmaea, L.; Rate 0.1250 kg/ha",2.0
same,SAGPY herbicidal effect rating,"Sagittaria pygmaea, L.; Rate 0.2500 kg/ha",9.0
same,SAGPY herbicidal effect rating,"Sagittaria pygmaea, L.; Rate 0.5000 kg/ha",9.0
same,MOOVA herbicidal effect rating,[4]; Rate 0.0320 kg/ha,9.0
same,MOOVA herbicidal effect rating,[4]; Rate 0.0620 kg/ha,9.0
same,MOOVA herbicidal effect rating,[4]; Rate 0.1250 kg/ha,9.0
same,MOOVA herbicidal effect rating,[4]; Rate 0.2500 kg/ha,9.0
same,MOOVA herbicidal effect rating,[4]; Rate 0.5000 kg/ha,9.0
